The values that follow come from PubChem BioAssay (NCI).

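A five-concentration, 48-hour dose response in 96-well plates underlies each endpoint, interpolated linearly between surrounding concentrations. At the TGI there is no net growth.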

Assay in all cases: NCI-60 cell line screen, 48 h
In assay [1] the test system is A549 NSCLC.
Assay [2] deals with BT-549 breast.
In assay [3] the test system is COLO 205 colon.
For assay [4], the system named is DU-145 prostate.
For assay [5], the system named is HCC-2998 colon.
Assay [6] has as its system HCT-116 colon.
Assay [7] relates to HL-60(TB) leukemia.
The test system of assay [8] is HOP-92 NSCLC.
The test system of assay [9] is HS 578T breast.
For assay [10], the system named is KM12 colon.
Assay [11] concerns M14 melanoma.
Assay [12] has as its system MALME-3M melanoma.
For assay [13], the system named is MDA-MB-231 breast.
Assay [14] deals with MDA-N.
The test system of assay [15] is OVCAR-5 ovarian.
Assay [16] concerns SK-MEL-2 melanoma.
The subject of assay [17] is SNB-75 CNS.
Assay [18] relates to NCI-H226 lung.
For assay [19], the system named is SR leukemia.

With `C/C1=C\[C@@H](C)C[C@@H](C)OC(=O)[C@@H](C)NC(=O)[C@H](Cc2ccc(O)c(Br)c2)N(C)C(=O)CNC(=O)[C@H](C)C1`, the TGI in [1] was greater than 100 µM; in assay [2], 2.16 µM; in assay [3], greater than 100 µM; in [4] it was greater than 100 µM; in [5], 70.1 µM; in assay [6], greater than 55.2 µM. Besides, the TGI was less than 0.01 µM in assay [7]; 0.0993 µM in [8]; 0.69 µM in assay [9]; greater than 100 µM in assay [10]; greater than 100 µM in [11]; 9.83 µM in [12]. In addition, the TGI in assay [13] is 5.34 µM; in assay [14], greater than 100 µM; in assay [15], greater than 100 µM; in assay [16] it was 25.6 µM; in [17] it was less than 0.01 µM.

Turning to `O=C(CSc1nc2ccc(I)cc2c(=O)n1Cc1ccccc1)NNC(=S)Nc1ccccc1`, the TGI in assay [1], in [2], in assay [3], in [4], in assay [5] and in assay [6] was greater than 100 µM each time. In addition, the TGI in assay [7], in [8], in assay [9], in [10], in [11] and in assay [14] was greater than 100 µM throughout. The TGI is greater than 100 µM in assay [18]; greater than 100 µM in [15]; greater than 100 µM in [16]; greater than 100 µM in assay [17]; 23.3 µM in assay [19].

Take `COc1ccc(/C(=N/OCCCC(=O)O)c2cccs2)cc1`: the TGI in assay [1], in assay [2], in assay [3], in assay [4], in assay [5] and in assay [6] was greater than 100 µM in each case. Besides, the TGI in [7], in assay [8], in [9], in assay [10], in [12] and in [13] was greater than 100 µM throughout. In addition, the TGI in assay [14], in assay [18], in assay [15], in assay [16] and in assay [17] was greater than 100 µM throughout.

`Nc1nncc2n[nH]nc12`: the TGI in assay [1], in assay [2], in [3], in assay [4], in assay [6] and in [7] was greater than 100 µM each time. Further, the TGI in [9], in assay [10], in assay [11], in [13], in assay [14] and in assay [18] was greater than 100 µM throughout. Moreover, the TGI in [15], in [16], in [17] and in assay [19] was greater than 100 µM in each case.

As to `C[C@H](CCC(=O)O)[C@H]1CC[C@H]2[C@@H]3[C@H](O)[C@H](O)[C@@H]4C[C@H](O)CC[C@]4(C)[C@H]3CC[C@]12C`, the TGI in [1], in assay [2], in assay [3], in assay [4], in assay [5] and in assay [6] was greater than 100 µM throughout. Further, the TGI in [7], in [8], in assay [9], in [10], in assay [11] and in assay [12] was greater than 100 µM each time. For the same molecule, the TGI in assay [13], in [14], in assay [18], in [15], in assay [16] and in assay [17] was greater than 100 µM in each case.

Turning to `CC(=O)OCCCCn1nncc1Cn1ccc(=O)n(Cc2cnnn2CCCCOC(C)=O)c1=O`, the TGI in assay [1], in [2], in assay [3], in assay [4], in assay [5] and in assay [6] was greater than 100 µM throughout. The TGI in [8], in [9], in [10], in assay [11], in assay [12] and in [13] was greater than 100 µM each time. The TGI in assay [14], in [18], in [15], in [16] and in [17] was greater than 100 µM in each case.

For the molecule `O=P(O)(O)c1ccc2c(c1)OCCOCCOCCOCCO2`, the TGI in [1], in assay [2], in [3], in [4], in assay [5] and in [6] was greater than 100 µM in each case. For the same molecule, the TGI in [7], in [9], in assay [10], in assay [12], in assay [13] and in assay [14] was greater than 100 µM throughout. For the same molecule, the TGI in assay [18], in assay [17] and in [19] was greater than 100 µM in each case.

In the case of `C1=C2C3=[N+](CCCC3)CC2Cc2sccc21` (centres undefined), the TGI in assay [1], in [2], in assay [3], in [4], in [6] and in assay [7] was greater than 100 µM in each case. The TGI in assay [8], in assay [9], in assay [10], in [11], in [12] and in assay [13] was greater than 100 µM throughout. Besides, the TGI in assay [14], in assay [18], in assay [15], in [16] and in [17] was greater than 100 µM throughout.

As to `COP(=O)(/C=C/C(NC(=O)C(Cl)(Cl)Cl)c1ccccc1)OC` (centres undefined), the TGI in assay [1], in assay [2], in assay [3], in assay [4], in assay [5] and in assay [6] was greater than 100 µM in each case. Also, the TGI in [7], in assay [8], in assay [9], in assay [10], in [11] and in assay [12] was greater than 100 µM each time. In addition, the TGI in assay [13], in assay [14], in assay [18], in assay [15], in [16] and in assay [17] was greater than 100 µM each time.

With `CCCC(=O)Nc1cc(/C=C/C(=O)N2CC(CCl)c3ccc([N+](=O)[O-])cc32)n(C)c1` (centres undefined), the TGI in assay [1], in assay [2], in assay [3], in [4], in assay [5] and in assay [6] was greater than 100 µM each time. For the same molecule, the TGI in [9], in assay [10], in assay [11], in assay [12], in [13] and in assay [14] was greater than 100 µM throughout. Besides, the TGI in assay [18], in [15], in [16], in assay [17] and in [19] was greater than 100 µM throughout.

As for `O=C1C=CC(=O)c2c(O)c(NCCN3CCOCC3)c(Cl)c(O)c21`, the TGI in assay [1] was 4.96 µM; in assay [2], 3.98 µM; in assay [3] it was 3.01 µM; in assay [4] it was 3.12 µM; in [5], 3.35 µM; in assay [6], 3.17 µM. Moreover, the TGI was 6.39 µM in assay [8]; 6.54 µM in assay [9]; greater than 10 µM in [10]; 3.64 µM in assay [11]; 3.31 µM in [12]; 6.43 µM in [13]. Besides, the results for the TGI in [14], in assay [18] and in assay [17] were 5.33 µM, greater than 10 µM and 3.27 µM, respectively.

In the case of `O=C(O)CN1CCN2CCCCCCCCN(CC1)CCN(CC(=O)O)CC2`, the TGI in assay [1] was greater than 100 µM; in assay [2], greater than 100 µM; in assay [3], greater than 100 µM; in [4] it was greater than 100 µM; in [6] it was greater than 100 µM; in assay [7], 30.7 µM. For the same molecule, the TGI in [8], in assay [9], in assay [10], in assay [11], in [12] and in assay [13] was greater than 100 µM each time. For the same molecule, the TGI in [14], in [18], in assay [15], in [16] and in [17] was greater than 100 µM throughout.

For `CCCC(=O)Oc1c2ccsc2c(OC(=O)CCC)c2ccsc12`, the TGI in assay [1] is 6.84 µM; in assay [2], 2.83 µM; in assay [3] it was 19.7 µM; in assay [4] it was 1.47 µM; in assay [5] it was 6.71 µM; in [6] it was 4.82 µM. The TGI in assay [7] was 3.79 µM; in assay [8] it was 3.06 µM; in assay [10] it was 13.8 µM; in assay [11], greater than 12.8 µM; in assay [12], 0.699 µM; in assay [13], 10.3 µM. The TGI in assay [14] came out at 0.725 µM; in assay [18], 7.15 µM; in assay [15] it was 7.36 µM; in assay [16], 1.86 µM; in assay [19] it was 7.32 µM.

For `C[n+]1c2ccccc2n2c3ccccc3c(NCc3ccco3)c(C#N)c21`, the TGI is greater than 100 µM in assay [1]; greater than 100 µM in assay [2]; 19.9 µM in assay [3]; greater than 22.1 µM in assay [4]; 3.36 µM in assay [5]; 14.7 µM in [6]. The TGI was determined as 8.69 µM in [7]; 10.8 µM in assay [9]; 22 µM in [10]; 5.62 µM in [11]; 7.59 µM in assay [12]; 16.6 µM in assay [13]. Also, the TGI stood at 10.9 µM in assay [14]; 16 µM in assay [18]; 12 µM in assay [15]; 6.51 µM in [16]; 6.86 µM in assay [17].

Take `Cc1cc(OP2(=O)NCc3ccncc3O2)ccc1Cl` (centres undefined): the TGI in assay [1], in [2], in assay [3], in [4], in assay [5] and in assay [6] was greater than 100 µM in each case. Further, the TGI in assay [8], in [10], in assay [11], in assay [13], in assay [14] and in assay [18] was greater than 100 µM in each case. Besides, the TGI in assay [15], in [16], in [17] and in assay [19] was greater than 100 µM in each case.

For the molecule `COc1ccc(N[C@H](CS(=O)c2ccc(C)cc2)C(F)(F)F)cc1` (some centres undefined), the TGI in assay [1], in assay [2], in [3], in assay [4], in assay [5] and in assay [6] was greater than 100 µM each time. Moreover, the TGI in assay [7], in assay [8], in assay [10], in assay [11], in assay [12] and in [13] was greater than 100 µM each time. Moreover, the TGI in assay [14], in [18], in assay [15], in assay [16], in assay [17] and in assay [19] was greater than 100 µM in each case.
